Data published in patent publication US7091220B2, “Substituted indole Mannich bases” (Gruenenthal GmbH, priority 1999, dated 2006).

target: T1, 5-HT transporter (Rattus norvegicus, UniProt P31652); experiment: Inhibition of serotonin re-uptake (5-HT uptake inhibition) in rat brain synaptosomes; assay type: biochemical; settings: rat brain synaptosomes (P2 fraction, pons and medulla oblongata); means from 2 parallel experiments; concentration not given
T1 construct: these vesicular particles were isolated from the pons and medulla oblongata region of the male rat brain; from tissue; host or cells: rat brain synaptosomes (P2 fraction) from pons and medulla oblongata of male rats
Description: The investigations of the inhibition of serotonin re-uptake (5-HT uptake inhibition) were carried out by the methods such as are described in M. Ch. Frink, H. -H. -Hennies, W. Englberger, M. Haurand and B. Wilffert, Arzneim.-Forsch./Drug. Res. 46 (III), 11, 1996, pages 1029–1036. They are introduced herewith as reference and thus form part of the disclosure.
To carry out these investigations, synaptosomes were freshly isolated from rat brain areas. In each case the so-called “P2” fraction was used, which was prepared according to the instructions in E. G. Gray and V. P. Whittaker, J. Anat. 76, pages 79–88, 1962. This literature is introduced herewith as reference and thus forms part of the disclosure. For determination of the 5-HT uptake, these vesicular particles were isolated from the pons and medulla oblongata region of the male rat brain.
The following characteristic data were determined for the 5-HT transporter: • 5-HT uptake: Km=0.084±0.011 μM • Vmax: 38.13±4.52 pmol/min/mg protein.
The results of the investigations are in each case stated as means from 2 parallel experiments.

T1 sequence (P31652 whole entry): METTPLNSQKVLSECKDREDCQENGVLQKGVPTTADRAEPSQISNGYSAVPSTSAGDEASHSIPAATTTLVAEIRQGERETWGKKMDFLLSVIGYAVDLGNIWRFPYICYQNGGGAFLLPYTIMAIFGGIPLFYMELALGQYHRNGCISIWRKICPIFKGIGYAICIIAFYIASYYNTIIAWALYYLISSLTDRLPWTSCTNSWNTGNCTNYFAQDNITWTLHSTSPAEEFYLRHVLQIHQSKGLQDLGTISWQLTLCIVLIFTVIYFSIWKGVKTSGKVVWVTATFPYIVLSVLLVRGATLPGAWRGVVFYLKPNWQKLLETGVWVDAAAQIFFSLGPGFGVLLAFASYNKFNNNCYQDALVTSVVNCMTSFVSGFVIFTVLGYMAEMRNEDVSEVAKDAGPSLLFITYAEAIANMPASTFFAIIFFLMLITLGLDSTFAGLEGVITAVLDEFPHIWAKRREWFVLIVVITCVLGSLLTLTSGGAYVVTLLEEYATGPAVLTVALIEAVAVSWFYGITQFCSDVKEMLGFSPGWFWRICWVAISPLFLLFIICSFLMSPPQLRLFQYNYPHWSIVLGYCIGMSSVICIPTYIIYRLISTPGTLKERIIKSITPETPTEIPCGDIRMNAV

Row | SMILES | Inhibition of 5HT uptake in % [%]
1 | COc1ccc(C(c2c(-c3ccc(F)cc3)[nH]c3ccccc23)N(C)C)cc1OC (centres unmarked) [Example 83, [(3,4-Dimethoxy-phenyl)-[2-(4-fluoro-phenyl)-1H-indol-3-yl]-methyl]-dimethylamine] | 39
2 | CCn1c(-c2ccccc2)c(C(c2ccc(OC)c(OC)c2)N(C)C)c2ccccc21 (centres unmarked) [Example 80, [(3,4-Dimethoxy-phenyl)-(1-ethyl-2-phenyl-1H-indol-3-yl)-methyl]-dimethyl-amine] | 42
3 | CCc1cccc2c(C(c3ccc(OC)c(OC)c3)N(C)C)c[nH]c12 (centres unmarked) [Example 81, [(3,4-Dimethoxy-phenyl)-(7-ethyl-1H-indol-3-yl)-methyl]-dimethyl-amine] | 68
4 | Cc1ccccc1C(c1c(C)[nH]c2ccccc12)N(C)C (centres unmarked) [Example 88, Dimethyl-[(2-methyl-1H-indol-3-yl)-o-tolyl-methyl]-amine] | 62
5 | Cc1[nH]c2ccccc2c1C(c1ccc(F)cc1Cl)N(C)C (centres unmarked) [Example 73, [(2-Chloro-4-fluoro-phenyl)-(2-methyl-1H-indol-3-yl)-methyl]-dimethyl-amine] | 41
6 | COc1cccc(C(c2c(C(=O)O)[nH]c3ccc(O)cc23)N(C)C)c1OC (centres unmarked) [Example 77, 3-[(2,3-Dimethoxy-phenyl)-dimethylamino-methyl]-5-hydroxy-1H-indole-2-carboxylic Acid] | 38
7 | COc1ccccc1C(c1c(C)[nH]c2ccccc12)N(C)C (centres unmarked) [Example 44, [(2-Methoxyphenyl)-(2-methyl-1H-indol-3-yl)-methyl]-dimethylamine] | 48
8 | Cc1cccc2[nH]cc(C(c3cccc(Oc4ccccc4)c3)N(C)C)c12 (centres unmarked) [Example 101, Dimethyl-[(4-methyl-1H-indol-3-yl)-(3-phenoxy-phenyl)-methyl]-amine] | 41
9 | CN(C)C(c1cccc(Oc2ccccc2)c1)c1c(-c2ccc(F)cc2)[nH]c2ccccc12 (centres unmarked) [Example 99, [[2-(4-Fluoro-phenyl)-1H-indol-3-yl]-(3-phenoxy-phenyl)-methyl]-dimethyl-amine] | 42
10 | Cc1[nH]c2ccccc2c1C(c1ccc(C(F)(F)F)cc1)N(C)C (centres unmarked) [Example 103, Dimethyl-[(2-methyl-1H-indol-3-yl)-(4-trifluoromethyl-phenyl)-methyl]-amine] | 74
11 | Cc1[nH]c2ccccc2c1C(c1cccc(Oc2ccccc2)c1)N(C)C (centres unmarked) [Example 95, Dimethyl-[(2-methyl-1H-indol-3-yl)-(3-phenoxy-phenyl)-methyl]-amine] | 70
12 | COc1ccc(C(c2c(-c3ccc(F)c(Cl)c3)[nH]c3ccccc23)N(C)C)cc1OC (centres unmarked) [Example 84, [[2-(3-Chloro-4-fluoro-phenyl)-1H-indol-3-yl]-(3,4-dimethoxy-phenyl)-methyl]-dimethyl-amine] | 44
13 | NC(c1cccc(Oc2ccccc2)c1)c1c(-c2ccc(F)c(Cl)c2)[nH]c2ccccc12 (centres unmarked) [Example 100, [[2-(3-Chloro-4-fluoro-phenyl)-1H-indol-3-yl]-(3-phenoxy-phenyl)-methyl]-amine] | 48
14 | COc1ccc(C(c2cn(C)c3ccccc23)N(C)C)cc1OC (centres unmarked) [Example 82, [(3,4-Dimethoxy-phenyl)-(1-methyl-1H-indol-3-yl)-methyl]-dimethyl-amine] | 42
15 | CCn1c(-c2ccccc2)c(C(c2ccc(C(C)(C)C)cc2)N(C)C)c2ccccc21 (centres unmarked) [Example 72, [(4-tert-Butyl-phenyl)-(1-ethyl-2-phenyl-1H-indol-3-yl)-methyl]-dimethyl-amine] | 60
16 | CCc1cccc2c(C(c3ccccc3C)N(C)C)c[nH]c12 (centres unmarked) [Example 89, [(7-Ethyl-1H-indol-3-yl)-o-tolyl-methyl]-dimethyl-amine] | 45
17 | CCc1cccc2c(C(c3cccc(Oc4ccccc4)c3)N(C)C)c[nH]c12 (centres unmarked) [Example 97, [(7-Ethyl-1H-indol-3-yl)-(3-phenoxy-phenyl)-methyl]-dimethyl-amine] | 79
